Experimental data reported in patent US4960883A, “Piperazines and homopiperazines” (Kowa Company, Ltd., priority 1988, dated 1990).

System: Rabbit PRP, ADP-induced platelet aggregation
Assay: Inhibitory effect on ADP-induced platelet aggregation
Assay type: cell-based
Conditions: ADP (2 μm); for Platelet aggregation inhibitory concentration: concentration at which the inhibition rate (%) in parentheses was found
Method: (B) Inhibitory effect on ADP-induced platelet aggregation
Rabbit PRP (250 μl) was preincubated with drug samples ([…]) of aqueous solution or 1 µl of DMSO solution) at 37° C. for 1 minute, and ADP (2 μm)-induced platelet aggregation was measured by aggregometer (NKK HEMA TRACERl Model PAT-4M). Inhibitory effects of the drugs were estimated from the standard curve of maximal aggregation.

| Compound | Platelet aggregation inhibition rate (%) in the parentheses (at 10^-5 mole/liter) | Platelet aggregation inhibitory concentration | Platelet aggregation inhibition rate (%) in the parentheses (at 10^-4 mole/liter) |
| --- | --- | --- | --- |
| COc1ccc(S(=O)(=O)N2CCN(CC(COCC(C)C)N(C)Cc3ccccc3)CC2)cc1OC (stereo not drawn) [Example 1, 1-(3,4-dimethoxybenzenesulfonyl)-4-(3-isobutoxy-2-methylbenzylaminopropyl)-piperazine] | 12% | 10^-5 mole/liter |  |
| CC(C)COCC(CN1CCCN(S(=O)(=O)c2ccccc2)CC1)N(C)Cc1ccccc1 (stereo not drawn) [Example 2, 1-benzenesulfonyl-4-(3-isobutoxy-2-methylbenzylaminopropyl)homopiperazine] |  | 10^-4 mole/liter | 60% |
| CC(C)COCC(CN1CCN(C(=O)CCO[N+](=O)[O-])CC1)N(C)Cc1ccccc1 (stereo not drawn) [Example 7] |  | 10^-4 mole/liter | 33% |
| CC(C)COCC(CN1CCN(S(=O)(=O)c2cccc3c(Cl)cccc23)CC1)N(C)Cc1ccccc1 (stereo not drawn) [Example 9] | 8% | 10^-5 mole/liter |  |
| CC(C)COCC(CN1CCN(S(C)(=O)=O)CC1)N(C)Cc1ccccc1 (stereo not drawn) [Example 10] |  | 10^-4 mole/liter | 35% |
| CC(C)COCC(CN1CCN(S(=O)(=O)c2ccccc2)CC1)N(C)Cc1ccccc1 (stereo not drawn) [Example 11] |  | 10^-4 mole/liter | 33% |
